Test results published in publication PMC7904827 (Scientific Reports, 2021).
Where a name gives a salt, the structure may show the parent alone.

What was measured:
[1] = Approximate solubility in distilled water at room temperature; type: physicochemical; conditions: distilled water, room temperature
Protocol: The syntheses of the target prodrugs were performed according to a known three-step procedure with some modifications. Target prodrugs GK-667, GK-678 and GK-691 were obtained in 34%, 37% and 17% overall yields, respectively. […] The resulting solutions remained physically stable for at least two hours at room temperature.

[2] = test system: neonatal ventricular cardiomyocytes (NVCMs); experiment: In vitro cardioprotection bioassay against daunorubicin toxicity (LDH release); type: cell-based, rat; conditions: 3 h preincubation, DAU 1.2 µM, LDH release after 48 h
Protocol: NVCMs were isolated in-house from 1- to 3-day-old Wistar rats as described previously. The use of animals and experimental protocols were approved by Charles University, Faculty of Pharmacy Animal Welfare Committee. All experiments were performed in accordance with Directive 2010/63/EU on the Protection of Animals Used for Scientific Purposes and in compliance with Animal Research: Reporting of In Vivo Experiments (ARRIVE) guidelines. Newly isolated cardiomyocytes were left for 40 h to form a monolayer of spontaneously beating cardiomyocytes in seeding medium (DMEM/F12 supplemented with 10% HS, 5% FBS, 4% PYR and 1% P/S), which was then replaced with culture medium (DMEM/F12 supplemented with 5% FBS, 4% PYR and 1% P/S). The medium was replaced again after 24 h for new culture medium.
(§1) After 3 h, DAU solution (1.2 µM) was added to the media. After another 3 h, the medium was replaced with new (drug-free) exposure medium, and the cardiomyocytes were then kept until the end of the experiment. In addition to cytoprotective properties, the toxicity of the studied agent was also examined; this experiment was performed as described above with only the DAU addition step omitted.
(§2) Forty-five hours after the last medium exchange, a sample of medium was taken from each well to assess lactate dehydrogenase (LDH) activity[27]–[29]. For details, see the Supplementary material.
(§3) 1.5 LDH activity evaluation
(§4) The control wells were treated with lysis buffer (0.1 M potassium phosphate, 1% Triton
(§5) X-100, 1 mM DTT, 2 mM EDTA; pH 7.8; 15 min; room temperature) to measure the total
(§6) cellular LDH level (sum of the activity in the control medium and the lysate). The activity of
(§7) LDH was assayed in Tris-HCl buffer (pH 8.9) containing 35 mM sodium lactate and 5 mM
(§8) NAD+. The rate of NAD+ reduction was monitored spectrophotometrically at 340 nm for 2 min.
(§9) The slope of the linear region and molar absorption coefficient e = 6.22*10 3 M/cm were used
(§10) to calculate the LDH activity, and the data were expressed as a percentage of total L DH activity. […]

[3] = test system: neonatal ventricular cardiomyocytes (NVCMs); experiment: Toxicity of the prodrugs alone in NVCMs (LDH release); type: cell-based, rat; design: key to LDH release, statistical significance compared to control: c - compared to control; P ≤ 0.01; conditions: prodrug alone 1–100 µM, NVCMs; n.s. or c in Fig. S2
Protocol: as §1, §2, §3, §4, §5, §6, §7, §8, §9, §10

[4] = design: method as in PMID 29273587; conditions: ADR-925 formed in vivo from DEX, rabbit; cited from earlier work
[5] = ICRF-193 release from the prodrugs during incubation in DMEM (thermomixer, UHPLC-MS/MS); type: in vitro ADME; conditions: 100 µM, 37 °C
Protocol: All samples were spiked with the internal standards. DMEM or buffer (100 μL) was diluted with an ice-cold methanol/water mixture (20:80, v/v), mixed and analyzed. Plasma (50 μL) was precipitated with ice-cold methanol (1:5, v/v), mixed (20 s) and centrifuged (10 min, 10,000 rpm, 4 °C). NVCM pellets (4.8 × 10^6 cells) were precipitated with ice-cold methanol (250 μL), mixed (20 s), sonicated in a cold ultrasonic bath (75 s), mixed (30 s) and centrifuged (10 min, 10,000 rpm, 4 °C). The supernatants from the plasma and NVCM extractions were filtered (0.22 μm, PVDF) prior to analysis. For assay of the prodrugs, the samples were acidified with formic acid to a final concentration of 0.5%.
The samples were analyzed using two UHPLC instruments both coupled to a triple quadrupole mass spectrometer. […] Positive ionization mode was used in both methods. The analytical columns tested are characterized in the Supplementary materials.
The prodrugs (100 μM) were incubated (37 °C) in DMEM in a thermomixer (Thermomixer Comfort, Eppendorf, Germany) under gentle mixing (350 rpm) for 48 h.
From all of the above described experiments, samples were taken at predefined intervals, treated and immediately analyzed. All experiments were performed in four replicates, and the results are expressed as the mean ± SD.

Row | Compound | solubility [1] | lowest concentration with significant protection against DAU-induced toxicity [2] | LDH release, statistical significance compared to control [3] | half-life of elimination [4] | prodrug degradation in DMEM [5] | AUC0–3 h of ICRF-193 concentrations ([5]; GK-667 compared with GK-678)
1 | C[C@H]([C@H](C)N1CC(=O)N(COC(=O)[C@@H](N)Cc2ccccc2)C(=O)C1)N1CC(=O)N(COC(=O)[C@@H](N)Cc2ccccc2)C(=O)C1 [GK-691, meso-2,3-bis(4-((S)-2-amino-3-phenylpropionyloxymethyl)-3,5-dioxopiperazin-1-yl)butane tetrahydrochloride] | ~10 mg/mL | 3 µM | c |  |  | 
2 | C[C@@H](CN(CC(N)=O)CC(=O)O)N(CC(N)=O)CC(=O)O [ADR-925] |  |  |  | 2.9 h |  | 
3 | C[C@H](N)C(=O)OCN1C(=O)CN([C@H](C)[C@H](C)N2CC(=O)N(COC(=O)[C@H](C)N)C(=O)C2)CC1=O [GK-678, meso-2,3-bis(4-((S)-2-aminopropionyloxymethyl)-3,5-dioxopiperazin-1-yl)butane tetrahydrochloride] | ~20 mg/mL | 3 µM | n.s. |  | fastest degradation | no statistically significant differences
